Patent US12673954B2 (BRISTOL-MYERS SQUIBB COMPANY, priority 2021, dated 2026)

Legend:
[1] = system: NF-κB pathway, THP1-Dual™ cells; assay: STING reporter assay in THP1-Dual cells, NF-κB pathway (SEAP, QUANTI-Blue); format: cell-based, human; settings: Homo sapiens, THP1-Dual, 20 h, THP1-Dual cells, 10% human plasma, 20 hours; SEAP; 100% activation = 100 μM cGAMP; read-out: NFkB (EC50 μM)
Outline: (§1)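 Activation normalised between DMSO-only baseline and 100 μM cGAMP maximum, after 20 h compound exposure (starting at 100 μM final) at 37° C, 5% CO2. Supernatant SEAP (QUANTI-Blue, OD620) reports NF-κB; secreted luciferase (QUANTI-Luc, RLU at 5 min) reports IRF.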

[2] = system: IRF pathway, THP1-Dual™ cells; assay: STING reporter assay in THP1-Dual cells, IRF pathway (Lucia luciferase, QUANTI-Luc); format: cell-based, human; settings: Homo sapiens, THP1-Dual, 20 h, THP1-Dual cells, 10% human plasma, 20 hours; Lucia luciferase; 100% activation = 100 μM cGAMP; read-out: IRF (EC50 μM)
Outline: as §1

| EC50 [1] [µM] | EC50 [2] [µM] | SMILES |
| --- | --- | --- |
| 2.1 | 1.8 | COC(=O)c1cc(C)cc2cc(CNC(=O)c3cncnc3OC)oc12 [Example 94, Methyl 2-((4-methoxypyrimidine-5-carboxamido)methyl)-5-methylbenzofuran-7-carboxylate] |
| 16 | 13 | CCOc1ncncc1C(=O)NCc1cc2cc(C)cc(C(=O)OC)c2o1 [Example 95, Methyl 2-((4-ethoxypyrimidine-5-carboxamido)methyl)-5-methylbenzofuran-7-carboxylate] |
| 10 | 11 | COC(=O)Cc1cc(C)cc2cc(CNC(=O)c3cnn4cccnc34)oc12 [Example 98, Methyl 2-(5-methyl-2-((pyrazolo[1,5-a]pyrimidine-3-carboxamido)methyl)benzofuran-7-yl)acetate] |
| 12 | 17 | COC(=O)c1cc(C2CC2)cc2cc(CNC(=O)c3cnn4cccnc34)oc12 [Example 99, Methyl 5-cyclopropyl-2-((pyrazolo[1,5-a]pyrimidine-3-carboxamido)methyl)benzofuran-7-carboxylate] |
